The source of these data is PMC11915509, “Small molecule inhibitors of hnRNPA2B1–RNA interactions reveal a predictable sorting of RNA subsets into extracellular vesicles” (Nucleic Acids Research, 2025).

The structures appear in SMILES notation. pIC50: −log10 of the molar value. Values joined by “and” are separate entries in the source; they are usually repeats but may differ in a detail not shown here. Equal entries are not always repeated.

In experiment [1] the target is T1, hnRNPA2B1-EXOmotif interaction (Homo sapiens, UniProt P22626).
T1 construct: purified a human full-length, GST-tagged protein expressed in Escherichia coli cells; made in house; host or cells: E. coli BL21 (DE3)
Nature of the experiment: AlphaScreen dose-response, inhibition of hnRNPA2B1-EXOmotif RNA interaction. Format: binding. The following applies: AlphaScreen dose-response with RNA EXOmotif, one site fitting. (In general: In Alpha technology, singlet oxygen from a donor bead excites a nearby acceptor bead.)
Method: The assays were performed in OptiPlate-384-well plates (PerkinElmer, 6007299) in 20 μl final volume. The ligands were diluted in AlphaBuffer [25 mM HEPES, pH 7.4, 100 mM NaCl, 0.01% bovine serum albumin (BSA)] and tested using AlphaScreen GST Detection Kit (PerkinElmer, 6760603C). […] For the reactions, 4 μl of the RNA probes were first added to the plate, then 16 μl of a mix containing all the other components was added, and the plate was incubated at room temperature for 1 h in the dark.
The high-throughput drug screening was performed in a total volume of 20 μl using 17 nM of RNA EXO motif (chosen below the hooking point), 30 nM GST-hnRNPA2B1, and 250 nM of compounds belonging to mass spectrometry (MS) Spectrum Collection library (MicroSource, 2000 compounds). Compounds were dispensed into white 384-well Optiplates (PerkinElmer) using Echo 650 acoustic dispenser (Beckman Coulter) followed by the addition of protein in Alpha Buffer using the EL460 dispenser (BioTek). After 15 min of incubation, RNA probes were added by Echo 650 acoustic dispenser, while Donor and Acceptor beads from the GST detection kit (Perkin Elmer) were dispensed by EL460 instrument. Following 60 min of incubation, Alpha signal was detected using Enspire plate reader instrument (PerkinElmer). The raw Alpha counts were normalized to Dimethyl sulfoxide (DMSO)-treated controls within every plate.

The subject of experiment [2] is EV miR-221 from NSC34 cells. Description: ddPCR of miR-221-3p in NSC34-derived EV-RNA. The experiment is classed as cell-based, mouse. The following applies: NSC34-derived EVs, 6 h treatment. Here is the method: EVs were isolated from HEK293T, NSC34, and smNPC-derived motor neurons using nickel-based isolation (NBI) or differential ultracentrifugation (UC). NBI protocol was performed as already described. Briefly, after a first centrifugation step at 2800 × g for 10 min, nickel beads were incubated for 30 min with serum-free media collected from cells in a ratio of 25 μl of beads per ml of medium. After a 2 min centrifugation at 600 g, particles were eluted from the beads by adding 1× elution buffer made of Solution A [16 mM ethylenediaminetetraacetic acid (EDTA), UltraPure, pH 8.0, Thermo Fisher] and Solution B (10 mM NaCl, 225 μM citric acid, Sigma–Aldrich) diluted five times in phosphate-buffered saline (PBS). After 15 min incubation at 28°C in a thermoshaker, the EVs were retrieved by 1-min centrifugation at 1800 × g and subjected to the following characterization. NBI was used to recover polydisperse EVs and include the RNA contribution from these for reverse proteomics experiments. The EV-RNA for reverse proteomics was pooled from three consecutive EV isolation procedures performed on a total of 30 T75 flasks (10 flasks each) of NSC34 cells grown until 80% confluence under standard conditions before washing with PBS and incubating with serum-free medium with glutamine and antibiotics. Differential UC was applied as an alternative EV isolation protocol to confirm the detection of hnRNPA2B1 protein. UC was performed by a SW 32 Ti swinging bucket rotor in an Optima XPN-100 ultracentrifuge (Beckman Coulter, Brea, CA, USA). The cell-conditioned serum-free media, after the first centrifugation step at 2800 × g for 10 min, was put in open-top Ultra-Clear centrifuge tubes (Beckman Coulter-344058) and subjected to 100 000 × g (100 K) UC for 70 min at 4°C under vacuum, with or without an additional step at 10 000 × g (10 K) to first sediment larger particles. Then the supernatant was removed, and the pellet was resuspended in 0.22 μm filtered PBS. Differential UC alone, consisting of 2800 × g for 10 min and 100 000 × g for 70 min, was applied for experiments reported in Fig. 5. […]
RNA from cells was extracted using TRI Reagent® (T9424, Sigma) following the manufacturer’s instructions. Thermo Fisher Nanodrop 2000 Spectrophotometer was used to assess the purity and quantity of extracted RNA. […] The elution was in 10–20 μl of RNase-free water and the RNA profiling and quantification was assessed by Agilent 2100 Bioanalyzer and RNA 6000 Pico Kit (5067-1513). Cell- and EV-RNAs were also analysed with DNF-472 HS RNA (15 nt) Kit (Agilent Technologies, Santa Clara, CA), according to the manufacturer. […] Results were analysed with Agilent ProSize data analysis software, that allows the analysis of RNA size, concentration and quality. […]

A further experiment deals with NSC34 cells. Nature of the experiment: Nanodrop quantification of total intracellular RNA after treatment. The following applies: 6 h treatment. Format: cell-based, mouse. On the procedure:
RNA from cells was extracted using TRI Reagent® ([…], Sigma) following the manufacturer's instructions. Thermo Fisher Nanodrop 2000 Spectrophotometer was used to assess the purity and quantity of extracted RNA. RNA from EVs was extracted using Single Cell RNA Isolation Kit (51800, Norgen) following the manufacturer's protocol. The elution was in 10-20 μl of RNase-free water and the RNA profiling and quantification was assessed by Agilent 2100 Bioanalyzer and RNA 6000 Pico Kit (5067-1513). Cell- and EV-RNAs were also analysed with DNF-472 HS RNA (15 nt) Kit (Agilent Technologies, Santa Clara, CA), according to the manufacturer. Briefly, 2 μl of RNA samples concentrated within a range of 50-5000 pg/μl and RNA Ladder were added to Diluent Marker, denatured at 70°C for 2 min and loaded. Results were analysed with Agilent ProSize data analysis software, that allows the analysis of RNA size, concentration and quality. Through a Peak Analysis it was possible to access the concentration of each peak recognized by the software. Half a nanogram of extracted RNA from cells and EVs was used as input for complementary DNA (cDNA) synthesis. cDNA was produced using TaqManTM Advanced miRNA cDNA Synthesis Kit (Applied BiosystemsTM, A28007) following manufacturers' instructions and used for droplet digital polymerase chain reaction (PCR) experiments.

For experiment [3], the system named is hnRNPA2B1 and TDP43 bound RNA (miR-221, miR-1910). Nature of the experiment: RNA immunoprecipitation (RIP) on cytoplasmic lysates of treated NSC34 cells. Format: cell-based, mouse. The following applies: 6 h treatment, anti-hnRNPA2B1 and anti-TDP43 RIP. Here is the method: Flow cytometry of a fraction of RNA immunoprecipitation (RIP) experiments, consisting of RNA/protein-antibody-bead complexes, was performed on the same instrument using a sequential gating with Streptavidin beads alone ± antibodies (this signal corresponded to background). Pyronin Y (PY) was used at a final concentration of 50 ng/ml and the PY-positive events recorded for 1 min.
Approximately 2 × 10^6 cells were used for each RIP experiment, performed as already described, without cross-linking steps and using 0.5 μg/ml of antibodies. Beads-precipitated samples were divided for immunoblotting or TRIzol-based RNA isolation. Densitometric analysis obtained using Image J software (v.1.54). miRNA TaqMan probes were bought from Thermo Fisher with the following codes: miR-221 (477 981), miR-1910 (479 581), and miR-126 (4 427 975).

T1 sequence (P22626 whole entry): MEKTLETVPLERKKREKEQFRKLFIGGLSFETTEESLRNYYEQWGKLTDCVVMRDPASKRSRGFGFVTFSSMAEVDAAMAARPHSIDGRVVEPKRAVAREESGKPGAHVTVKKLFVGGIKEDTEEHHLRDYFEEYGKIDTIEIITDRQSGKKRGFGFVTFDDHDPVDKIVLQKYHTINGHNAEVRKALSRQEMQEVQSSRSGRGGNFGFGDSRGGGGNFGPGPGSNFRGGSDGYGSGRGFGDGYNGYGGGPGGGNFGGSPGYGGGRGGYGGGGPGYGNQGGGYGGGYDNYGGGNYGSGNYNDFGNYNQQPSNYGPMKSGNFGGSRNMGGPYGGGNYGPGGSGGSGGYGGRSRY

With `O=C1C=C2CC3(O)COc4c(ccc(O)c4O)C3=C2C=C1O` (stereo not shown) [H, hematein], the negative-log IC50 (pIC50) (usually the negative decadic logarithm of the IC50, by convention in mol/L) in experiment [1] is ~7.00 and 7.00. For the same compound, the “vesicular miR-221, copy number normalized on Y3 RNA and DMSO” value in experiment [2] is given as “vesicular depletion”. Further, the “accumulation of intracellular RNAs” value in the experiment on NSC34 cells is given as “significantly higher”. For the same compound, the “percentage of bound targets (miR-221, miR-1910)” value in experiment [3] was “significantly reduced”.
